Experimental data published in US10851098B2, “Azole amides and amines as alpha v integrin inhibitors” (BRISTOL-MYERS SQUIBB COMPANY, priority 2016, dated 2020).

target: T1, human αVβ6 (Homo sapiens, UniProt P06756+P18564); test: human αVβ6 HTRF binding assay
T1 construct: purchased R & D systems 3817-AV
Method: All binding assays used the HTRF (homogeneous time resolved fluorescence) technology from Cisbio International, therefore all assays are described as HTRF binding assays. The assay results for the Examples are listed above together with the characterization data. The HTRF binding assays are established for the following integrins: human αVβ6, human αVβ1, human αVβ3, human αVβ5, and human αVβ8. All assays used the following assay buffer: 20 mM Tris, pH 7.4, 1 mM MgCl2, 1 mM MnCl2, 0.01% Tween 20, and 0.01% BSA. Alternatively, a SPA-based assay was used for evaluation of receptor binding.
[…]

T1 sequence (P06756 31-992 limits assumed): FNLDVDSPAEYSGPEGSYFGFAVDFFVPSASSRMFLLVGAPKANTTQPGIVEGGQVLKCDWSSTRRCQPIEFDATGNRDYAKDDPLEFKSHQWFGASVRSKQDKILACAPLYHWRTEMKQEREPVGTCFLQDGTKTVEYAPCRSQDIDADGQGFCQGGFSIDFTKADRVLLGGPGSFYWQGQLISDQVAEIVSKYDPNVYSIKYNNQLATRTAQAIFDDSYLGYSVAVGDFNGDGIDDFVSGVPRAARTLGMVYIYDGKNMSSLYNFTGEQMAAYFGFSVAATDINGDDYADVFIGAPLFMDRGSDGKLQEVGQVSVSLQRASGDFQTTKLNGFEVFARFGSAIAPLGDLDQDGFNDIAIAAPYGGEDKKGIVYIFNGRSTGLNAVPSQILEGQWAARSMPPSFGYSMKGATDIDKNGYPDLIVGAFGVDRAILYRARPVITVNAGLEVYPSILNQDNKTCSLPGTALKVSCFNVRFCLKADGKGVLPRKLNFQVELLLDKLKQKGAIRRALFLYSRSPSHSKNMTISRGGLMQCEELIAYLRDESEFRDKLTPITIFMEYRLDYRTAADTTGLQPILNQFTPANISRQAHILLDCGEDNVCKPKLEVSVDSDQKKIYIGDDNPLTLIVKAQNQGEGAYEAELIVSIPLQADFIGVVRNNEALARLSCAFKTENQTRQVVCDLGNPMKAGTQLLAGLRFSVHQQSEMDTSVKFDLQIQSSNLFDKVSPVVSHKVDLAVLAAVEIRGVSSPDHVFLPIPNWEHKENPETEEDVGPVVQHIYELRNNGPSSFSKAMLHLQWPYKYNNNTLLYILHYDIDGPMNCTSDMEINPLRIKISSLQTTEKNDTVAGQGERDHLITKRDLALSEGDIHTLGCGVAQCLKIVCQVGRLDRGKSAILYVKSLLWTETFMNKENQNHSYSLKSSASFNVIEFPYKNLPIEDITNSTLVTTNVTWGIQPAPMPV
T1 sequence (P18564 22-707 limits assumed): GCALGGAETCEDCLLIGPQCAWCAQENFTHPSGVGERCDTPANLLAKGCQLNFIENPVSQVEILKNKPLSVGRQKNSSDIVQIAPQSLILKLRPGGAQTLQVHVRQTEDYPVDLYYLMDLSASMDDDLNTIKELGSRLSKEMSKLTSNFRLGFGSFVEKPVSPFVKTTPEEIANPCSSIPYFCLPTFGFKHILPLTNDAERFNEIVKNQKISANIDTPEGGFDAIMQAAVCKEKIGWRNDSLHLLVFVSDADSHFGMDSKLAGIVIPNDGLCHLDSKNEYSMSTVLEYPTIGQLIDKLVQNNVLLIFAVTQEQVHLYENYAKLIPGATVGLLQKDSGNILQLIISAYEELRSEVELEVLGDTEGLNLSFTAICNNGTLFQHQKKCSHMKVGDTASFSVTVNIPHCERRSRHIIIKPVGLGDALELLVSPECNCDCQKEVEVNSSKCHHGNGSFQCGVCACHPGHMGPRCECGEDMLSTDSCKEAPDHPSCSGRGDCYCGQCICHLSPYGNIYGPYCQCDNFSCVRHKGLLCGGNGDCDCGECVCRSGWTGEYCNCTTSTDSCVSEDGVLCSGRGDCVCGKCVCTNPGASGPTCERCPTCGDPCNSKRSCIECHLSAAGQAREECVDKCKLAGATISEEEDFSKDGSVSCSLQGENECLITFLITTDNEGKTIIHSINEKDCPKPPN

With COc1ccc([C@H](CC(=O)O)NC(=O)c2cn(CCc3ccc4c(n3)NCCC4)nc2COC(C)(C)C)cc1F [Example 1, (S)-3-(3-(tert-Butoxymethyl)-1-(2-(5,6,7,8-tetrahydro-1,8-naphthyridin-2-yl)ethyl)-1H-pyrazole-4-carboxamido)-3-(3-fluoro-4-methoxyphenyl)propanoic acid] as the compound, how does the IC50 read?
The IC50 was 771 nM.

With COc1ccc([C@H](CC(=O)O)NC(=O)c2cn(CCc3ccc4c(n3)NCCC4)nc2CO)cc1F [Example 2, (S)-3-(3-Fluoro-4-methoxyphenyl)-3-(3-(hydroxymethyl)-1-(2-(5,6,7,8-tetrahydro-1,8-naphthyridin-2-yl)ethyl)-1H-pyrazole-4-carboxamido)propanoic acid] as the compound, how does the IC50 read?
The IC50 was 349 nM.

With CC(C)(C)OCc1nn(CCc2ccc3c(n2)NCCC3)cc1C(=O)NC(CC(=O)O)c1cc(Cl)cc(Cl)c1 (centres unmarked) [Example 3] as the compound, how does the IC50 read?
Its IC50 is 312 nM.

Which IC50 does the source give for O=C(O)CC(NC(=O)c1cn(CCc2ccc3c(n2)NCCC3)nc1CO)c1cc(Cl)cc(Cl)c1 (centres unmarked) [Example 4, 3-(3,5-Dichlorophenyl)-3-(3-(hydroxymethyl)-1-(2-(5,6,7,8-tetrahydro-1,8-naphthyridin-2-yl)ethyl)-1H-pyrazole-4-carboxamido)propanoic acid] here?
The IC50 was 141 nM.

How did the IC50 turn out when CC(C)(C)OCc1nn(CCCc2ccc3c(n2)NCCC3)cc1C(=O)NC(CC(=O)O)c1cc(Cl)cc(Cl)c1 (centres unmarked) [Example 5, 3-(3-(tert-Butoxymethyl)-1-(3-(5,6,7,8-tetrahydro-1,8-naphthyridin-2-yl)propyl)-1H-pyrazole-4-carboxamido)-3-(3,5-dichlorophenyl)propanoic acid] was run?
The IC50 was 159 nM.

How did the IC50 turn out when O=C(O)CC(NC(=O)c1cn(CCCc2ccc3c(n2)NCCC3)nc1CO)c1cc(Cl)cc(Cl)c1 (centres unmarked) [Example 6, 3-(3,5-Dichlorophenyl)-3-(3-(hydroxymethyl)-1-(3-(5,6,7,8-tetrahydro-1,8-naphthyridin-2-yl)propyl)-1H-pyrazole-4-carboxamido)propanoic acid] was run?
Its IC50 is 178 nM.

For O=C(O)C[C@H](NC(=O)c1cnn(CCCNc2ccccn2)c1)c1cc(Cl)cc(Cl)c1 [Example 7, (S)-3-(3,5-Dichlorophenyl)-3-(1-(3-(pyridin-2-ylamino)propyl)-1H-pyrazole-4-carboxamido)propanoic acid], which IC50 is on record?
The IC50 was 63 nM.

For O=C(O)C[C@H](NC(=O)c1cnn(CCCNC2=NCCN2)c1)c1cc(Cl)cc(Cl)c1 [Example 8, (S)-3-(3,5-Dichlorophenyl)-3-(1-(3-((4,5-dihydro-1H-imidazol-2-yl)amino)propyl)-1H-pyrazole-4-carboxamido)propanoic acid], which IC50 is on record?
The IC50 was 41 nM.

For O=C(O)CC(NC(=O)c1cnn(CCc2ccc3c(n2)NCCC3)c1CO)c1cccc(Cl)c1 (centres unmarked) [Example 9, 3-(3-Chlorophenyl)-3-(5-(hydroxymethyl)-1-(2-(5,6,7,8-tetrahydro-1,8-naphthyridin-2-yl)ethyl)-1H-pyrazole-4-carboxamido)propanoic acid], which IC50 is on record?
The IC50 was 22 nM.

With N[C@@H](CNC(=O)c1cnn(CCc2ccc3c(n2)NCCC3)c1)C(=O)O [Example 11, (S)-2-Amino-3-(1-(2-(5,6,7,8-tetrahydro-1,8-naphthyridin-2-yl)ethyl)-1H-pyrazole-4-carboxamido)propanoic acid] as the compound, how does the IC50 read?
Its IC50 is 121 nM.

O=C(O)C[C@H](NC(=O)c1cnn(CCc2ccc3c(n2)NCCC3)n1)c1cc(Cl)cc(Cl)c1 [Example 13, (S)-3-(3,5-Dichlorophenyl)-3-(2-(2-(5,6,7,8-tetrahydro-1,8-naphthyridin-2-yl)ethyl)-2H-1,2,3-triazole-4-carboxamido)propanoic acid] was tested. Which IC50 did it give?
The IC50 was 7.1 nM.

How did the IC50 turn out when Cc1nc2c(cc1Cn1ncc(C(=O)N[C@@H](CC(=O)O)c3cc(Cl)cc(Cl)c3)n1)CCCN2 [Example 14, (S)-3-(3,5-Dichlorophenyl)-3-(2-((2-methyl-5,6,7,8-tetrahydro-1,8-naphthyridin-3-yl)methyl)-2H-1,2,3-triazole-4-carboxamido)propanoic acid] was run?
Its IC50 is 2210 nM.

Cc1cc(C)c(C(=O)N[C@@H](CNC(=O)c2cnn(CCc3ccc4c(n3)NCCC4)c2)C(=O)O)c(C)c1 [Example 15, (S)-3-(1-(2-(5,6,7,8-Tetrahydro-1,8-naphthyridin-2-yl)ethyl)-1H-pyrazole-4-carboxamido)-2-(2,4,6-trimethylbenzamido)propanoic acid] was tested. Which IC50 did it give?
Its IC50 is 0.9 nM.

With O=C(O)C[C@H](NC(=O)c1cnn(CCc2ccc3c(n2)NCCC3)c1)c1cc(Cl)cc(Cl)c1 [Example 16, (S)-3-(3,5-Dichlorophenyl)-3-(1-(2-(5,6,7,8-tetrahydro-1,8-naphthyridin-2-yl)ethyl)-1H-pyrazole-4-carboxamido)propanoic acid] as the compound, how does the IC50 read?
The IC50 was 4.2 nM.

For CCN(C(=O)c1cnn(CCc2ccc3c(n2)NCCC3)c1)C(CC(=O)O)c1ccc(OC)nc1 (centres unmarked) [Example 17, 3-(N-Ethyl-1-(2-(5,6,7,8-tetrahydro-1,8-naphthyridin-2-yl)ethyl)-1H-pyrazole-4-carboxamido)-3-(6-methoxypyridin-3-yl)propanoic acid], which IC50 is on record?
Its IC50 is 363 nM.

Which IC50 does the source give for COc1ccc([C@H](CC(=O)O)N(C)C(=O)c2cnn(CCc3ccc4c(n3)NCCC4)c2)cc1F [Example 18] here?
The IC50 was 13 nM.

COc1ccc(S(=O)(=O)N[C@@H](CNC(=O)c2cnn(CCc3ccc4c(n3)NCCC4)c2)C(=O)O)cc1 [Example 19, (S)-2-((4-Methoxyphenyl)sulfonamido)-3-(1-(2-(5,6,7,8-tetrahydro-1,8-naphthyridin-2-yl)ethyl)-1H-pyrazole-4-carboxamido)propanoic acid] was tested. Which IC50 did it give?
Its IC50 is 1.3 nM.

How did the IC50 turn out when O=C(NC[C@@H](NC(=O)[C@@H]1CCCN1S(=O)(=O)c1ccccc1)C(=O)O)c1cnn(CCc2ccc3c(n2)NCCC3)c1 [Example 21] was run?
Its IC50 is 1.4 nM.

With CC(C)(C)c1cc(Br)cc([C@H](CC(=O)O)NC(=O)c2cnn(CCc3ccc4c(n3)NCCC4)c2)c1 [Example 22] as the compound, how does the IC50 read?
The IC50 was 1.9 nM.

Which IC50 does the source give for Cc1ccc(Oc2cccc(C(CC(=O)O)NC(=O)c3cnn(CCc4ccc5c(n4)NCCC5)c3COC(C)(C)C)c2)cc1 (centres unmarked) [Example 23] here?
Its IC50 is 2.3 nM.

With O=C(O)CC(NC(=O)c1cnn(CCc2ccc3c(n2)NCCC3)c1)c1ccc(Cl)c(C(F)(F)F)c1 (centres unmarked) [Example 24] as the compound, how does the IC50 read?
Its IC50 is 3.1 nM.

For CN(C(=O)c1cnn(CCc2ccc3c(n2)NCCC3)c1)[C@@H](CC(=O)O)c1cc(Cl)cc(Cl)c1 [Example 25], which IC50 is on record?
The IC50 was 3.1 nM.

With CC(C)(C)c1cc(Br)cc([C@H](CC(=O)O)NC(=O)c2cnn(CCc3ccc4c(n3)NCCC4)c2CO)c1 [Example 26] as the compound, how does the IC50 read?
The IC50 was 5 nM.

Cc1ccc(Oc2cccc(C(CC(=O)O)NC(=O)c3cnn(CCc4ccc5c(n4)NCCC5)c3CO)c2)cc1 (centres unmarked) [Example 27] was tested. Which IC50 did it give?
The IC50 was 5.1 nM.

How did the IC50 turn out when Cc1cc(C)c(S(=O)(=O)N[C@H](CNC(=O)c2cnn(CCCc3ccc4c(n3)NCCC4)c2)C(=O)O)c(C)c1 [Example 28] was run?
The IC50 was 6.1 nM.

With O=C(O)C[C@H](NC(=O)c1cnn(CCc2ccc3c(n2)NCCC3)c1CO)c1cc(Cl)cc(Cl)c1 [Example 29] as the compound, how does the IC50 read?
The IC50 was 6.4 nM.

Which IC50 does the source give for O=C(O)CC(NC(=O)c1cnn(CCc2ccc3c(n2)NCCC3)c1)c1cc(Cl)cc(Cl)c1 (centres unmarked) [Example 30] here?
The IC50 was 7.3 nM.

With CN(C(=O)c1cnn(CCc2ccc3c(n2)NCCC3)c1)C(CC(=O)O)c1cc(Cl)cc(Cl)c1 (centres unmarked) [Example 32] as the compound, how does the IC50 read?
Its IC50 is 7.6 nM.

COc1ccc([C@H](CC(=O)O)NC(=O)c2cnn(CCc3ccc4c(n3)NCCC4)c2CO)cc1F [Example 33] was tested. Which IC50 did it give?
The IC50 was 9.4 nM.

How did the IC50 turn out when CC(C)(C)OCc1c(C(=O)NC(CC(=O)O)c2cccc(-n3cccc3)c2)cnn1CCc1ccc2c(n1)NCCC2 (centres unmarked) [Example 34] was run?
Its IC50 is 10 nM.

With O=C(O)CC(NC(=O)c1cnn(CCc2ccc3c(n2)NCCC3)c1CO)c1ccc(Cl)c(C(F)(F)F)c1 (centres unmarked) [Example 35] as the compound, how does the IC50 read?
Its IC50 is 10 nM.

Which IC50 does the source give for O=C(O)CC(NC(=O)c1cnn(CCc2ccc3c(n2)NCCC3)c1CO)c1cccc(OC(F)(F)F)c1 (centres unmarked) [Example 36] here?
The IC50 was 11 nM.

Which IC50 does the source give for Cc1cc(C)n(-c2cccc(C(CC(=O)O)NC(=O)c3cnn(CCc4ccc5c(n4)NCCC5)c3COC(C)(C)C)c2)n1 (centres unmarked) [Example 37] here?
The IC50 was 12 nM.

Which IC50 does the source give for O=C(O)CC(NC(=O)c1cnn(CCc2ccc3c(n2)NCCC3)c1CO)c1cccc(Oc2cc(Cl)cc(Cl)c2)c1 (centres unmarked) [Example 38] here?
The IC50 was 13 nM.

With COc1ccc([C@H](CC(=O)O)NC(=O)c2cnn(CCc3ccc4c(n3)NCCC4)c2)cc1F [Example 39] as the compound, how does the IC50 read?
Its IC50 is 15 nM.

Which IC50 does the source give for CN(C(=O)c1cnn(CCc2ccc3c(n2)NCCC3)c1CO)C(CC(=O)O)c1cc(Cl)cc(Cl)c1 (centres unmarked) [Example 40] here?
The IC50 was 14 nM.

For CC(C)(C)OCc1c(C(=O)NC(CC(=O)O)c2cc(Cl)cc(Cl)c2)cnn1CCc1ccc2c(n1)NCCC2 (centres unmarked) [Example 41], which IC50 is on record?
Its IC50 is 14 nM.

Cc1cc(C)n(-c2cccc(C(CC(=O)O)NC(=O)c3cnn(CCc4ccc5c(n4)NCCC5)c3CO)c2)n1 (centres unmarked) [Example 42] was tested. Which IC50 did it give?
Its IC50 is 16 nM.

With COc1ccc([C@H](CC(=O)O)NC(=O)c2cnn(CCc3ccc4c(n3)NCCC4)c2CO)cn1 [Example 43] as the compound, how does the IC50 read?
Its IC50 is 16 nM.

For O=C(O)CC(NC(=O)c1cnn(CCc2ccc3c(n2)NCCC3)c1CO)c1cccc(C(F)(F)F)c1 (centres unmarked) [Example 44], which IC50 is on record?
The IC50 was 16 nM.

CN(C(=O)c1cnn(CCCc2ccc3c(n2)NCCC3)c1)[C@@H](CC(=O)O)c1cc(Cl)cc(Cl)c1 [Example 45] was tested. Which IC50 did it give?
The IC50 was 18 nM.

How did the IC50 turn out when COc1ccc([C@H](CC(=O)O)NC(=O)c2cnn(CCc3ccc4c(n3)NCCC4)c2)cn1 [Example 46] was run?
The IC50 was 21 nM.

O=C(O)CC(NC(=O)c1cnn(CCc2ccc3c(n2)NCCC3)c1CO)c1cc(Cl)cc(Cl)c1 (centres unmarked) [Example 47] was tested. Which IC50 did it give?
Its IC50 is 22 nM.

CN(C(=O)c1cn(CCc2ccc3c(n2)NCCC3)nc1C(F)(F)F)[C@@H](CC(=O)O)c1cc(Cl)cc(Cl)c1 [Example 48] was tested. Which IC50 did it give?
Its IC50 is 22 nM.
